Laboratory results reported in patent US11845805B2, “Bispecific antibody against CD3 and CD20 in combination therapy for treating diffuse large B-cell lymphoma” (GENMAB A/S, priority 2020, dated 2023).
Where two headings read alike, the source gives them in different places.

What was measured:
[1] = system: primary DLBCL and follicular lymphoma patient biopsies; settings: biopsies taken a certain amount of time after administration of an anti-CD20 antibody; cited from earlier work
[2] = system: CD20-expressing Raji-luc tumor cells; settings: even in the presence of an excess of IgG1-RTX-FEAR (rituximab variant with inert Fc domain); cited from earlier work
T cells = assay: T cell viability after 16 hours pre-incubation with CHOP components; format: cell-based
[3] = T cells pretreated 16 hours with the CHOP component

Row | Molecule | T cell viability (T cells; [3]) | also measured
1 | epcoritamab: IgG1 bispecific CD3×CD20 antibody; heavy/light chain pairs SEQ ID NOs: 24/25 and 26/27; CAS 2134641-34-0 |  | T-cell-mediated cytotoxicity in patient biopsies [1]: induced T-cell-mediated cytotoxicity; tumor growth in the xenograft model [2]: effectively reduce tumor growth
2 | C[C@]12C=CC(=O)C=C1CC[C@@H]1[C@@H]2C(=O)C[C@@]2(C)[C@H]1CC[C@]2(O)C(=O)CO [prednisone, 17,21-dihydroxypregna-1,4-diene-3,11,20-trione] | did not impact T cell viability | 
3 | COc1cccc2c1C(=O)c1c(O)c3c(c(O)c1C2=O)C[C@@](O)(C(=O)CO)C[C@@H]3O[C@H]1C[C@H](N)[C@H](O)[C@H](C)O1 [doxorubicin] | reduction in T cell viability | 
4 | CC[C@]1(O)C[C@H]2CN(CCc3c([nH]c4ccccc34)[C@@](C(=O)OC)(c3cc4c(cc3OC)N(C=O)[C@H]3[C@@](O)(C(=O)OC)[C@H](OC(C)=O)[C@]5(CC)C=CCN6CC[C@]43[C@@H]65)C2)C1 [vincristine] | did not impact T cell viability | 
5 | O=P1(N(CCCl)CCCl)NCCCO1 (stereo not drawn) [cyclophosphamide, 2H-1,3,2-Oxazaphosphorin-2-amine, N,N-bis(2-chloroethyl)tetrahydro-, 2-oxide] |  | T cell viability (T cells): did not impact T cell viability
